In patent US20250214942A1, “INHIBITORS OF RECEPTOR INTERACTING PROTEIN KINASE I FOR THE TREATMENT OF DISEASE” (Board of Regents, The University of Texas System, priority 2019, published 2025) one finds IC50 data, which are given here for 24 molecules.

What is called IC50 is the midpoint of a concentration-inhibition curve.

Assay [1] deals with human monocytic cell line U937. The assay can be described thus: Human U937 cellular necroptosis assay (TNFalpha + z-VAD-FMK, Cell Titer-Glo viability). Format: cell-based. The settings on record: U937 cells, 25 ng/mL human TNFalpha + 25 μM z-VAD-FMK, read-out: hU937 Avg IC50. The method in brief: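 Cells resuspended in phenol red-free RPMI with 10% FBS, stimulated with 25 ng/mL human TNFalpha plus 25 μM z-VAD-FMK, then given serially diluted compound for 22 h at 37° C, 5% CO2. Viability by Cell Titer-Glo 2.0 luminescence; IC50 from four-parameter logistic fit, averaged across runs.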
Background: Cellular ATP, detected with luciferase, serves as a proxy for viable cell number.

The next assay has as its target RIPK1 (Homo sapiens (Human), UniProt Q13546). Briefly: ADP-Glo kinase assay (RIPK1 activity, conversion of ATP to ADP). The settings on record: 5 nM RIPK1, 50 μM ATP, 6 h reaction; read-out: RIPK1 Enzyme Avg IC50. Type of assay: biochemical. A digest of the protocol:
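ADP-Glo luminescence of ATP-to-ADP conversion by 5 nM RIPK1 with 50 μM ATP (final), 6 h reaction after 10 min compound preincubation at rt. Buffer was 50 mM HEPES pH 7.5, 30 mM MgCl2, 0.05% BSA, 0.02% CHAPS. IC50 from four-parameter logistic fit.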

Where two headings read alike, the source gives them in different places.

Chain of RIPK1 (Q13546 1-327): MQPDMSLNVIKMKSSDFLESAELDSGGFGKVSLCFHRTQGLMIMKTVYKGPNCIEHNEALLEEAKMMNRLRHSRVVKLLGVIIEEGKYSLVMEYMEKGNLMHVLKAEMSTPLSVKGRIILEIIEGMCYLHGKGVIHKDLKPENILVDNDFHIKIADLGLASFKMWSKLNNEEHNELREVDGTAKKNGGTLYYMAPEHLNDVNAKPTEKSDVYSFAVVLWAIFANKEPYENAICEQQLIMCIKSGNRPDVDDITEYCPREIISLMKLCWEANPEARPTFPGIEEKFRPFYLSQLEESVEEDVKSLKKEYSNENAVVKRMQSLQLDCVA

As to “1-((3-(5-(3,5-difluorophenyl)-4,5-dihydro-1H-pyrazole-1-carbonyl)bicyclo[1.1.1]-pentan-1-yl)methyl)-1H-benzo[d]imidazole-6-carbonitrile and 1-((3-(5-(3,5-difluorophenyl)-4,5-dihydro-1H-pyrazole-1-carbonyl)bicyclo[1.1.1]-pentan-1-yl)methyl)-1H-benzo[d]imidazole-5-carbonitrile [Example 186]”, the IC50 in assay [1] (22 h) turned out to be 682 nM; on RIPK1, 113 nM.

Turning to `Cn1cc(-c2cc(OCC34CC(C(=O)N5CC(F)CC5c5cccc(F)c5)(C3)C4)ncn2)cn1` (single isomer, unassigned) [Example 29, (4-Fluoro-2-(3-fluorophenyl)pyrrolidin-1-yl)(3-(((6-(1-methyl-1H-pyrazol-4-yl)pyrimidin-4-yl)oxy)methyl)bicyclo[1.1.1]pentan-1-yl)methanone], the half-inhibitory concentration (IC50) is 647 nM in assay [1] (Homo sapiens, U-937, 22 h) and 213 nM at RIPK1. Regarding `Cn1cc(-c2cc(OCC34CC(C(=O)N5CC(F)CC5c5cccc(F)c5)(C3)C4)ncn2)cn1` (single isomer, unassigned) [Example 30, (4-Fluoro-2-(3-fluorophenyl)pyrrolidin-1-yl)(3-(((6-(1-methyl-1H-pyrazol-4-yl)pyrimidin-4-yl)oxy)methyl)bicyclo[1.1.1]pentan-1-yl)methanone], the IC50 in assay [1] (22 h) is 708 nM; on RIPK1 it was 124 nM. Take `O=C(N1N=CCC1c1cc(F)cc(F)c1)C12CC(Cn3cc4cc(F)ccc4n3)(C1)C2` (stereo not drawn) [Example 3, (5-(3,5-Difluorophenyl)-4,5-dihydro-1H-pyrazol-1-yl)(3-((5-fluoro-2H-indazol-2-yl)methyl)bicyclo[1.1.1]pentan-1-yl)methanone]: the IC50 in assay [1] (Homo sapiens, U-937, 22 h) turned out to be 112 nM; at RIPK1, 51 nM.

As to `O=C(N1N=CCC1c1cc(F)cc(F)c1)C12CC(Cn3ncc4cc(F)ccc43)(C1)C2` (stereo not drawn) [Example 4, (5-(3,5-Difluorophenyl)-4,5-dihydro-1H-pyrazol-1-yl)(3-((5-fluoro-1H-indazol-1-yl)methyl)bicyclo[1.1.1]pentan-1-yl)methanone], the IC50 in assay [1] (Homo sapiens, U-937, 22 h) came out at 9 nM; on RIPK1, 19 nM.

For `O=C(N1N=CCC1c1cc(F)cc(F)c1)C12CC(CF)(C1)C2` (stereo not drawn) [Example 5, (5-(3,5-Difluorophenyl)-4,5-dihydro-1H-pyrazol-1-yl)(3-(fluoromethyl)-bicyclo[1.1.1]pentan-1-yl)methanone], the IC50 turned out to be 20 nM in assay [1] (Homo sapiens, U-937, 22 h) and 17 nM on RIPK1. For the molecule `O=C(N1N=CCC1c1cc(F)cc(F)c1)C12CC(COc3cc(Br)ncn3)(C1)C2` (stereo not drawn) [Example 6, (3-(((6-Bromopyrimidin-4-yl)oxy)methyl)bicyclo[1.1.1]pentan-1-yl)(5-(3,5-difluorophenyl)-4,5-dihydro-1H-pyrazol-1-yl)methanone], the 50% inhibitory concentration (IC50) in assay [1] (Homo sapiens, U-937, 22 h) stood at 20 nM; at RIPK1 it was 23 nM. As to `O=C(N1N=CCC1c1cc(F)cc(F)c1)C12CC(COc3cc(Cl)ncn3)(C1)C2` (stereo not drawn) [Example 7, (3-(((6-Chloropyrimidin-4-yl)oxy)methyl)bicyclo[1.1.1]pentan-1-yl)(5-(3,5-difluorophenyl)-4,5-dihydro-1H-pyrazol-1-yl)methanone], the IC50 in assay [1] (Homo sapiens, U-937, 22 h) amounted to 18 nM; at RIPK1, 21 nM.

`NC(=O)c1cc(OCC23CC(C(=O)N4N=CCC4c4cc(F)cc(F)c4)(C2)C3)ncn1` (stereo not drawn) [Example 8, 6-((3-(5-(3,5-Difluorophenyl)-4,5-dihydro-1H-pyrazole-1-carbonyl)bicyclo[1.1.1]pentan-1-yl)methoxy)pyrimidine-4-carboxamide]: the 50% inhibitory concentration (IC50) in assay [1] (Homo sapiens, U-937, 22 h) turned out to be 51 nM; at RIPK1, 28 nM. Regarding `N#Cc1cc(OCC23CC(C(=O)N4N=CCC4c4cc(F)cc(F)c4)(C2)C3)ncn1` (stereo not drawn) [Example 9, 6-((3-(5-(3,5-Difluorophenyl)-4,5-dihydro-1H-pyrazole-1-carbonyl)bicyclo[1.1.1]pentan-1-yl)methoxy)pyrimidine-4-carbonitrile], the concentration for half-maximal inhibition (IC50) in assay [1] (Homo sapiens, U-937, 22 h) was 62 nM; at RIPK1 it was 16 nM. On the same counts, the results for `O=C(N1N=CCC1c1cc(F)cc(F)c1)C12CC(CCl)(C1)C2` (stereo not drawn) [Example 11, (3-(Chloromethyl)bicyclo[1.1.1]pentan-1-yl)(5-(3,5-difluorophenyl)-4,5-dihydro-1H-pyrazol-1-yl)methanone] are 18 nM and 20 nM. Taken in the same sequence, the figures for `N#Cc1cc(NCC23CC(C(=O)N4N=CCC4c4cc(F)cc(F)c4)(C2)C3)ncn1` (stereo not drawn) [Example 12, 6-(((3-(5-(3,5-Difluorophenyl)-4,5-dihydro-1H-pyrazole-1-carbonyl)bicyclo[1.1.1]pentan-1-yl)methyl)amino)pyrimidine-4-carbonitrile] were 887 nM and 243 nM. Taken in the same sequence, the figures for `O=C(N1N=CCC1c1cncc(F)c1)C12CC(Cn3ncc4c(F)cccc43)(C1)C2` (stereo not drawn) [Example 14, (3-((4-Fluoro-1H-indazol-1-yl)methyl)bicyclo[1.1.1]pentan-1-yl)(5-(5-fluoropyridin-3-yl)-4,5-dihydro-1H-pyrazol-1-yl)methanone] were 24 nM and 12 nM. Turning to `N#CCC12CC(C(=O)N3N=CCC3c3cc(F)cc(F)c3)(C1)C2` (stereo not drawn) [Example 18, 2-(3-(5-(3,5-Difluorophenyl)-4,5-dihydro-1H-pyrazole-1-carbonyl)-bicyclo[1.1.1]pentan-1-yl)acetonitrile], the IC50 in assay [1] (Homo sapiens, U-937, 22 h) is 284 nM; on RIPK1 it was 70 nM.

Take `O=C(N1N=CCC1c1cc(F)cc(F)c1)C12CC(Cn3cc4c(F)cccc4n3)(C1)C2` (stereo not drawn) [Example 21, (5-(3,5-Difluorophenyl)-4,5-dihydro-1H-pyrazol-1-yl)(3-((4-fluoro-2H-indazol-2-yl)methyl)bicyclo[1.1.1]pentan-1-yl)methanone]: the concentration for half-maximal inhibition (IC50) is 114 nM in assay [1] (Homo sapiens, U-937, 22 h) and 70 nM at RIPK1. Taken in the same sequence, the figures for `O=C(N1N=CCC1c1cc(F)cc(F)c1)C12CC(Cn3ncc4c(F)cccc43)(C1)C2` (stereo not drawn) [Example 22, (5-(3,5-Difluorophenyl)-4,5-dihydro-1H-pyrazol-1-yl)(3-((4-fluoro-1H-indazol-1-yl)methyl)bicyclo[1.1.1]pentan-1-yl)methanone] were 5 nM and 11 nM.

As for `O=C(N1N=CCC1c1cc(F)cc(F)c1)C12CC(Cn3cnc4ccccc43)(C1)C2` (stereo not drawn) [Example 23, (3-((1H-Benzo[d]imidazol-1-yl)methyl)bicyclo[1.1.1]pentan-1-yl)(5-(3,5-difluorophenyl)-4,5-dihydro-1H-pyrazol-1-yl)methanone], the half-maximal inhibitory concentration (IC50) in assay [1] (Homo sapiens, U-937, 22 h) worked out at 158 nM; on RIPK1, 30 nM. On the same counts, the results for `N#Cc1ccnc(OCC23CC(C(=O)N4CC(F)CC4c4cccc(F)c4)(C2)C3)c1` (stereo not drawn) [Example 26, 2-((3-(4-Fluoro-2-(3-fluorophenyl)pyrrolidine-1-carbonyl)-bicyclo[1.1.1]pentan-1-yl)methoxy)isonicotinonitrile] are 472 nM and 59 nM. As to `N#Cc1ccc2c(cnn2CC23CC(C(=O)N4N=CCC4c4cc(F)cc(F)c4)(C2)C3)n1` (stereo not drawn) [Example 179], on RIPK1, the 50% inhibitory concentration (IC50) worked out at 9.6 nM. For `N#Cc1ccc2nn(CC34CC(C(=O)N5N=CCC5c5cc(F)cc(F)c5)(C3)C4)cc2n1` (stereo not drawn) [Example 180, 2-((3-(5-(3,5-difluorophenyl)-4,5-dihydro-1H-pyrazole-1-carbonyl)bicyclo[1.1.1]-pentan-1-yl)methyl)-2H-pyrazolo[4,3-b]pyridine-5-carbonitrile], at RIPK1, the IC50 worked out at 392 nM.

“(3-((3-cyclopropyl-1H-pyrazol-1-yl)methyl)-bicyclo[1.1.1]pentan-1-yl)(5-(3,5-difluorophenyl)-4,5-dihydro-1H-pyrazol-1-yl)methanone and (3-((5-cyclopropyl-1H-pyrazol-1-yl)methyl)-bicyclo[1.1.1]pentan-1-yl)(5-(3,5-difluorophenyl)-4,5-dihydro-1H-pyrazol-1-yl)methanone [Example 191]”: the IC50 at RIPK1 stood at 74 nM.

With “(5-(3,5-difluorophenyl)-4,5-dihydro-1H-pyrazol-1-yl)(3-((3-methyl-1H-pyrazol-1-yl)methyl)bicyclo[1.1.1]-pentan-1-yl)methanone and (5-(3,5-difluorophenyl)-4,5-dihydro-1H-pyrazol-1-yl)(3-((5-methyl-1H-pyrazol-1-yl)methyl)bicyclo[1.1.1]-pentan-1-yl)methanone [Example 190]”, the 50% inhibitory concentration (IC50) at RIPK1 is 30 nM. For the molecule “(5-(3,5-difluorophenyl)-4,5-dihydro-1H-pyrazol-1-yl)(3-((6-fluoro-2-methyl-1H-benzo[d]imidazol-1-yl)-methyl)bicyclo[1.1.1]pentan-1-yl)methanone and (5-(3,5-difluorophenyl)-4,5-dihydro-1H-pyrazol-1-yl)(3-((5-fluoro-2-methyl-1H-benzo[d]imidazol-1-yl)-methyl)bicyclo[1.1.1]pentan-1-yl)methanone [Example 188]”, the IC50 at RIPK1 came to 454 nM. Regarding “(5-(3,5-difluorophenyl)-4,5-dihydro-1H-pyrazol-1-yl)(3-((6-methoxy-1H-benzo[d]-imidazol-1-yl)methyl)-bicyclo[1.1.1]pentan-1-yl)-methanone and (5-(3,5-difluorophenyl)-4,5-dihydro-1H-pyrazol-1-yl)(3-((5-methoxy-1H-benzo[d]-imidazol-1-yl)methyl)-bicyclo[1.1.1]pentan-1-yl)-methanone [Example 187]”, the IC50 on RIPK1 was 447 nM.
